Experimental data published in US20240238310A1, “MODULATION OF SEX STEROID HORMONE PRODUCTION AND ACTIVITY FOR TREATING AND PREVENTING HERNIAS” (Northwestern University, priority 2020, published 2024).
Entries after “also recorded” stand apart in the source; their conditions may differ.

How the values were obtained:
[1] = system: LAMT WT fibroblasts; experiment: R1881 treatment of primary fibroblasts, western blot (AR, PCNA); assay type: cell-based, mouse; settings: for increase in PCNA levels (densitometry normalized to GAPDH): preliminary data
Method: (§2) Primary fibroblasts were isolated from LAMT from WT and Arom^Hum mice (n=5/genotype). Cells were treated for 24 hours with increasing doses (0.001, 0.01, 0.1, 1, 5, 10, and 100 nM) of R1881, a synthetic androgen, and compared to untreated cells by western blot.

[2] = system: LAMT Arom^Hum fibroblasts; experiment: as above; assay type: cell-based, mouse; settings: for increase in PCNA levels (densitometry normalized to GAPDH): preliminary data
Method: as §2

[3] = system: Arom^hum mice; settings: 3 weeks old mice; high-dose DHT via injection for 53 days; vs vehicle; p<0.005
Method: 3-week-old mice were treated with vehicle (Veh) or DHT for 53 days.

[4] = system: Arom^hum mice; experiment: Prevention of inguinal hernia, LAMT fibrosis and atrophy in Arom^hum mice (treatment started before hernia formation); assay type: in vivo, mouse
Excerpt: Increased LAMT estrogen levels are associated with LAMT fibrosis, myocyte atrophy, and inguinal hernia development; aromatase inhibitor prevents hernia formation in Arom^hum mice. […] None of the WT littermates (n=32) developed hernia.
In the mouse, the scrotum is connected to the peritoneal cavity with a narrow funicular (or inguinal) canal, whose walls are composed of LAMT. Structurally normal LAMT is essential to maintain the tone of this canal and prevents herniation of bowel. LAMT is the critical site affected by E2 excess (FIGS. 2, 5, 6). As in many other tissues, stromal cells intimately interact with parenchymal cells (myocytes) in UAMT and LAMT (FIG. 6). […] Administration of the aromatase inhibitor letrozole started at 3 weeks of age for 12 weeks prevented LAMT atrophy, fibrosis and herniation in all (10 out of 10) treated Arom^hum mice (FIG. 6B).
Experiment 1a1: Does aromatase inhibition arrest or reverse LAMT fibrosis, atrophy, and hernia in male Arom^hum mice? […] The hernias will be classified as mild, early moderate, late moderate and severe if the bulging area through muscle tissue is <100 mm^2 (˜4 weeks), 100-150 mm^2 (˜6 weeks), 150-200 mm^2 (˜8 weeks), or >200 mm^2 (˜10 weeks), respectively. First, we will treat Arom^hum mice showing mild hernias with letrozole (SC 10 μg/day release pellet) or vehicle starting at 4 weeks of age for 12 weeks^63. We will assess whether muscle fibrosis, atrophy, and hernia can be arrested or reversed in mildly (<100 mm^2) affected animals. If early letrozole treatment can arrest mild muscle fibrosis, we will delay the initiation of treatment to 6, 8, or 10 weeks of age to determine whether letrozole can arrest or reverse the growth of the early moderate (6 weeks), late moderate (8 weeks) or severe hernia (10 weeks). Hernia development will be monitored by visual inspection twice a week for 12 weeks after letrozole administration and will be reported as hernia incidence using Kaplan-Meier curve analysis. The length and width of the observed hernias will be measured to calculate the surface area (length×width). After completion of the treatment, the mice will be dissected, and LAMT, UAMT (control), and serum will be collected. One hundred mg of frozen muscle tissue will be obtained to measure tissue estrogen levels. Circulating and tissue (LAMT and UAMT) E2 levels will be measured at the IIT Research Institute by Dr. Miguel Muzzio (see letter) using LC-MS^2. We will use immunoblotting and IHC to determine ERα expression in LAMT and UAMT.
This finding was published in PNAS in Oct., 2018. […] We treated Arom^hum mice with fulvestrant for 12 weeks starting at the age of 4 weeks (before hernia formation). As expected, placebo-treated Arom^hum mice developed scrotal hernias.

[5] = system: Arom^hum mice; experiment: Reversal of established scrotal hernias and LAMT fibrosis/atrophy in Arom^hum mice; assay type: in vivo, mouse; settings: for time required to reverse large hernias, compared to fulvestrant treatment / reversal of large scrotal hernia: Arom^hum mice with large hernias
Method: FIG. 16. […] Arom^hum mice with small to moderate size of hernias were treated with placebo or letrozole for 12 weeks. (A) Schematic diagram depicts the schedule of drug administration. (B) The area of scrotal hernia in Arom^hum mice. (C) Representative photomicrographs of Masson's trichrome-stained LAMT sections of WT and Arom^hum mice. Quantification of the percentage of connective tissue or fibrotic area (D) or myofiber area (E) in WT and Arom^hummice. 10 representative high-power fields were analyzed in each tissue. One-way ANOVA with Tukey's multiple comparison test, **p<0.01, ***p<0.001. Scale bars, […]. n=5 mice per group.
FIG. 17. […] Arom^hum mice with small to moderate size of hernias were treated with placebo or letrozole for 3 weeks. (A) Schematic diagram depicts the schedule of drug administration. (B) The area of scrotal hernia in Arom^hum mice.
FIG. 18. E2/ER antagonist fulvestrant reverses the large size of scrotal hernias and rescues LAMT fibrosis and myocyte atrophy in Arom^hum mice. Arom^hum mice with large size of hernias were treated with placebo or fulvestrant for 12 weeks. (A) Schematic diagram depicts the schedule of drug administration. (B) The area of scrotal hernia in Arom^hum mice. (C) Representative photomicrographs of Masson's trichrome-stained LAMT sections of WT and Arom^hum mice. Quantification of the percentage of connective tissue or fibrotic area (D) in WT and Arom^hum mice. 10 representative high-power fields were analyzed in each tissue. (E) Hydroxyproline content in LAMT of WT and Arom^hum mice treated with fulvestrant. One-way ANOVA with Tukey's multiple comparison test, ***p<0.001, ****p<0.0001. n=5 mice per group.
(§1) FIG. 19. Aromatase inhibitor letrozole reverses the large size of scrotal hernias in Arom^hum mice. Arom^hum mice with large size of hernias were treated with placebo or letrozole for 12 weeks. (A) Schematic diagram depicts the schedule of drug administration. (B) The area of scrotal hernia in Arom^hum mice.
as §1, with “20. E2/ER antagonist raloxifene” for “19. Aromatase inhibitor letrozole”, “raloxifene” for “letrozole”, “3” for “12”
We treated Arom^hum mice with letrozole for 12 weeks. […] Raloxifene is a selective estrogen receptor modulator (SERM) and is currently used to prevent and treat osteoporosis in postmenopausal women.
We treated Arom^hum mice with fulvestrant for 12 weeks when the hernia area was over 200 mm^2. Large hernias were completely disappeared after 3- to 4-week of fulvestrant administration. […] We measured the total amount of collagen (largely type I and III), a major component of ECM, through measuring the content of hydroxyproline(1).

[6] = system: LAMT E2; experiment: Serum and LAMT estradiol (E2) by LC-MS^2 after letrozole treatment; assay type: in vivo, mouse; settings: Arom^hum mice, letrozole 10 μg daily SC pellets starting at week 3
Method: FIG. 4. (A) Serum estradiol (E2) and (B) LAMT E2 were measured by liquid chromatography-tandem mass spectrometry (LC-MS^2) assay after letrozole (let) treatment (n=10/group). *p<0.05. **p<0.01. Veh, vehicle.
LAMT estrogen levels are increased in Arom^hum mice. Arom^hum mice recapitulate the primary aspects of aromatase expression in men in that most peripheral (extragonadal) tissues, such as skeletal muscle and adipose tissue, express aromatase primarily using the distal promoter 1.4 and, to a lesser extent, the proximal promoter II (FIG. 3)^32. […] Local E2 levels in LAMT, however, are strikingly higher in Arom^hum mice than in WT mice (FIG. 4B).
Increased LAMT estrogen levels are associated with LAMT fibrosis, myocyte atrophy, and inguinal hernia development; aromatase inhibitor prevents hernia formation in Arom^hum mice. […]
Experiment 1a1: Does aromatase inhibition arrest or reverse LAMT fibrosis, atrophy, and hernia in male Arom^hum mice? […] Hernia development will be monitored by visual inspection twice a week for 12 weeks after letrozole administration and will be reported as hernia incidence using Kaplan-Meier curve analysis. The length and width of the observed hernias will be measured to calculate the surface area (length×width). […] Circulating and tissue (LAMT and UAMT) E2 levels will be measured at the IIT Research Institute by Dr. Miguel Muzzio (see letter) using LC-MS^2. […]

[7] = system: LAMT primary fibroblasts from Arom^hum mice; experiment: mRNA levels of estrogen-responsive and fibrotic genes in LAMT primary fibroblasts after E2 antagonist treatment; assay type: cell-based, mouse; settings: MPP, pretreated 2 hours before addition of E2 (10 nM)
Method: FIG. 10. mRNA levels of estrogen-responsive genes [Pgr (A, E) and Greb1 (B, F)] and fibrotic genes [Spon2 (C, G), Kiss1 (D), and Eln (H)] in LAMT primary fibroblasts from Arom^hum mice after treatment with 100 nM ICI 182,780 (ICI) or […] MPP in the presence or absence of E2 (10 nM). Cells were pretreated with ICI 182,780 or MPP for 2 hours before the addition of E2. Veh, vehicle. *P<0.05, **P<0.01. GAPDH mRNA levels served as controls.
Experiment 1a2: Does the general E2 antagonist fulvestrant, which downregulates and blocks ER, or ERα-selective E2 antagonist MPP prevent, arrest or reverse LAMT muscle fibrosis, atrophy and inguinal hernias in male Arom^hum mice? […] Here, we will define whether the effects of E2 on hernia formation in LAMT is mediated via ERα in vivo. We will treat Arom^hum or WT mice with vehicle, fulvestrant (ICI 182,780), or MPP. […] Circulating and muscle tissue E2 levels will be measured using LC-MS^2. To validate the effects of each treatment, protein expression of ERα and E2/ERα target genes (Ccnd1, Pgr, and Greb1), and cell proliferation markers (Ki67 and PCNA) will be determined by IHC and immunoblotting. Fibrotic-related genes (Kiss1, Ren1, Emb, Timp1, Spon2, and Eln), the ECM marker Col1a1, and the myocyte marker Myh will be assessed using qPCR and IHC in LAMT after fulvestrant, MPP, and/or letrozole treatment. […]

[8] = R1881 0.001-100 nM, 24 hours, western blot
[9] = Arom^hum mice with small to moderate hernias, letrozole for 12 weeks

C[C@]1(O)CC[C@H]2[C@@H]3CCC4=CC(=O)CCC4=C3C=C[C@@]21C [R1881, (17b)-17-Hydroxy-17-methyl-estra-4,9,11-trien-3-one]
increase in PCNA levels (densitometry normalized to GAPDH) ([1]; 0.001 nM R1881, 24 hours): 80%
increase in PCNA levels (densitometry normalized to GAPDH) ([1]; 0.01 nM R1881, 24 hours): 60%
decrease in PCNA levels ([1]; 100 nM R1881, 24 hours): 25%
AR levels [1, 8]: increased AR levels in a dose-dependent manner
increase in PCNA levels (densitometry normalized to GAPDH) ([2]; 0.001 nM R1881, 24 hours): 20%
increase in PCNA levels (densitometry normalized to GAPDH) ([2]; 0.01 nM R1881, 24 hours): 30%
decrease in PCNA levels ([2]; 10 nM R1881, 24 hours): 40%
decrease in PCNA levels ([2]; 100 nM R1881, 24 hours): 30%
AR levels [2, 8]: increased AR levels in a dose-dependent manner

C[C@]12CCC(=O)C[C@@H]1CC[C@@H]1[C@@H]2CC[C@]2(C)[C@@H](O)CC[C@@H]12 [DHT, dihydrotestosterone]
hernia volume [3]: significantly decreased

N#Cc1ccc(C(c2ccc(C#N)cc2)n2cncn2)cc1 [letrozole]
hernia development ([4]; Arom^hum male mice, letrozole 10 μg daily via subcutaneous slow-release pellets starting at week 3, 12 weeks): entirely prevented LAMT fibrosis or inguinal hernia development in all animals; also recorded: prevented hernia development in all Arom^hum mice; also recorded: prevents abdominal bulging, LAMT stromal fibrosis, myocyte atrophy, and inguinal hernias in three lines of Arom^hum mice; also recorded: completely prevented the formation of inguinal hernias
ECM content in LAMT ([4]; Arom^hum mice): significantly decreased
development of LAMT fibrosis (fibrotic area, Masson's trichrome) ([4]; Arom^hum mice, 4-week-old mice treated for 12 weeks, FIGS. 15C and D): completely prevented with letrozole treatment
stromal cell proliferative activity (Ki67-positive stromal cells) in LAMT ([4]; Arom^hum mice, FIG. 7E): significantly decreased stromal cell proliferative activity
LAMT atrophy and fibrosis (Masson's trichrome staining) ([4]; Arom^hum mice, letrozole, FIG. 6B): prevented LAMT atrophy and fibrosis
treated mice in which LAMT atrophy, fibrosis and herniation were prevented ([4]; Arom^hum mice, started at 3 weeks of age for 12 weeks): 10 out of 10
time required to reverse large hernias, compared to fulvestrant treatment [5]: require a longer time to reverse large hernias as compared to fulvestrant treatment
reversal of large scrotal hernia ([5]; letrozole for 12 weeks, FIG. 19): reverses large scrotal hernia
muscle fibrosis [5, 9]: reduction in muscle fibrosis
myocyte size [5, 9]: restoration of myocyte size
reversal of mild to moderate size of hernia (150-200 mm^2) ([5]; Arom^hum mice, letrozole for 12 weeks, FIG. 16): can reverse mild to moderate size of hernia
LAMT E2 levels [6]: restored LAMT E2 levels similar to WT LAMT levels

O=C(c1ccc(OCCN2CCCCC2)cc1)c1c(-c2ccc(O)cc2)sc2cc(O)ccc12 [raloxifene]
time required to reverse large hernias, compared to fulvestrant treatment [5]: require a longer time to reverse large hernias as compared to fulvestrant treatment
reversal of large scrotal hernia ([5]; raloxifene for 3 weeks, FIG. 20): reverses large scrotal hernia
reversal of small to large hernias ([5]; Arom^hum mice, 3-week raloxifene treatment, FIGS. 17 and 20): capable to reverse small to large hernias
reversal of mild to moderate size of hernia ([5]; Arom^hum mice, raloxifene for 21 days, FIG. 17): can also reverse mild to moderate size of hernia; also recorded: reverses the small to moderate size of scrotal hernias

Cc1c(-c2ccc(O)cc2)nn(-c2ccc(O)cc2)c1-c1ccc(OCCN2CCCCC2)cc1 [MPP, Methyl-Piperidino-Pyrazole]
E2-induced expression of estrogen-responsive genes (Pgr and Greb1) and fibrotic genes (Spon2, Kiss1, Eln) [7]: significantly decreased E2-induced expression of estrogen-responsive genes (Pgr and Greb1) and fibrotic genes (Spon2, Kiss1 and, Eln)
